Test results from patent US20250295652A1, “Inhibitors of Molluscum Contagiosum Infection and Methods Using the Same” (priority 2021, published 2025).
Like-named read-outs stand apart in the source and are kept apart here.

Legend:
D4 [1] = biological target: T1, D4 (Vaccinia virus, UniProt P04303, Y163F); assay type: binding; conditions: for thermal shift (in words): up to 50 μM
D4 [2] = biological target: T1, D4; assay type: binding; parameters: made in house; host or cells: bacterial cells (IPTG induction); purified for SPR, crude lysate for DARTS
D4 [3] = biological target: T1, D4; assay type: binding; parameters: made in house; host or cells: bacterial cells (IPTG induction); purified for SPR, crude lysate for DARTS; remark: listed apart in the source
[4] = test system: human estrogen receptor beta (ERβ-N), MBP fusion; experiment: DARTS, unrelated control protein ERβ-N; assay type: binding; conditions: crude cell lysates
[5] = biological target: T2, E9/A20/D4 proteins (vaccinia virus vD4) (Vaccinia virus, UniProt P04303, Y163F); assay type: biochemical
T2 construct: made in house; host or cells: TNT reticulocyte lysate (in vitro translation)

[6] = biological target: E9/A20/D4 proteins (molluscum mD4) (Molluscum contagiosum virus, UniProt Q98260); experiment: biochemical
HSV-1 = assay type: cell-based; conditions: Vero cells
[7] = biological target: UL30 (DNA polymerase) and UL42 (processivity factor) (Human herpesvirus 1, UniProt P04293+P10226); assay type: biochemical, HSV-1
[8] = test system: duplex or single-stranded DNA; experiment: Isothermal titration calorimetry (ITC) DNA binding; conditions: 40 μM compound, 25° C.
Description: Fish sperm DNA (USB Scientific, USA) was dissolved in water and fragmented by sonication in order to generate a random DNA mix. The fragmented DNA was then dialyzed into column buffer absence of glycerol. The 15-mer oligomer comprised of poly d(TC) (Integrated DNA Technologies, USA) was directly prepared in the same buffer without the dialysis step. DNA and compounds were prepared in the same dialysis buffer with added 2.5 mM DTT, 1% DMSO, and 0.005% Tween-20. DNA binding was then assessed by isothermal titration calorimetry (ITC) on a MicroCal iTC200 microcalorimeter (Malvern Instruments, United Kingdom) by titrating 3 μL/injection of 1.2 mg/mL of random DNA (with unknown molar concentration) or 5.3 mg/L of single-stranded DNA into the sample consisting of 40 μM of compound. Experiments were performed at 25° C. with 800 rpm stirring and 3-min spacing in order to allow equilibration. Ethidium bromide (Sigma-Aldrich, USA) was freshly prepared in water. Since the molar concentrations of the DNA ligands were undefined, only raw heat values are depicted.

mD4-VV surrogate virus = experiment: microbe, parasite or virus in culture; assay type: cell-based, mD4/vaccinia hybrid virus; conditions: Hybrid virus, BSC-1, read-out: mD4 EC50
MBP = biological target: T3, MBP (Escherichia coli, UniProt P0AEX9); experiment: DARTS, unrelated control protein MBP; assay type: binding; conditions: crude cell lysates
T3 construct: made in house; host or cells: bacterial cells, crude lysate

VV = experiment: microbe, parasite or virus in culture; assay type: cell-based, vaccinia virus; conditions: Orthopoxvirus vaccinia, BSC-1, read-out: VV EC50
[9] = Solubility in receptor medium; conditions: 1×PBS/4% BSA receptor medium, typical IVPT study
Excerpt: For this study, human torso skin was used rather than a membrane. Initially, methods development was done to identify the receiving medium in the reservoir of the Franz cell apparatus which provided the greatest compound solubility so that percentages of full penetration would not be underestimated due to poor solubility.

[10] = Irritancy on human cadaver skin; conditions: gel formulated 99
Description: Briefly, gel was applied to shaved skin areas, covered for 24 hours and irritancy was measured daily for 3 days after uncovering using the Draize scoring system.

in vitro = conditions: African green monkey

Sequence of E9/A20/D4 proteins (molluscum mD4) (Q98260 1-226): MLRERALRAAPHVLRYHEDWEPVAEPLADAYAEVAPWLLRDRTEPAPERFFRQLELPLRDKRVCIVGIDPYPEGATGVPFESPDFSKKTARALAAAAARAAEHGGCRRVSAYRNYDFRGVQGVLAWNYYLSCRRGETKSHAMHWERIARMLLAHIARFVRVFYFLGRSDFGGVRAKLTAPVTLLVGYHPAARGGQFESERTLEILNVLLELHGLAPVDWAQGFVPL
Sequence of UL30 (DNA polymerase) and UL42 (processivity factor) (P10226 whole entry): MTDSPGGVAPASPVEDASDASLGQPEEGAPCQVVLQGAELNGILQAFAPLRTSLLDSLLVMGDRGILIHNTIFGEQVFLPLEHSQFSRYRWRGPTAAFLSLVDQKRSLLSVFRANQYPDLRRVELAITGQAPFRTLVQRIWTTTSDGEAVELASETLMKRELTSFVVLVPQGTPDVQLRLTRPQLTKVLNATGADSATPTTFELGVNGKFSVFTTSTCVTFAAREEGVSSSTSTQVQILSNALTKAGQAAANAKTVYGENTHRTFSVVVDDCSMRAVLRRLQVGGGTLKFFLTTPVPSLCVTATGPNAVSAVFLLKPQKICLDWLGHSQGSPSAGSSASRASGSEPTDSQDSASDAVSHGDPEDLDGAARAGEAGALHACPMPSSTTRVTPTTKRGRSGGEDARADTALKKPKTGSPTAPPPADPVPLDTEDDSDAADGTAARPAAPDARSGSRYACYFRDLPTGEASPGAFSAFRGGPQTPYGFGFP
Sequence of UL30 (DNA polymerase) and UL42 (processivity factor) (P04293 whole entry): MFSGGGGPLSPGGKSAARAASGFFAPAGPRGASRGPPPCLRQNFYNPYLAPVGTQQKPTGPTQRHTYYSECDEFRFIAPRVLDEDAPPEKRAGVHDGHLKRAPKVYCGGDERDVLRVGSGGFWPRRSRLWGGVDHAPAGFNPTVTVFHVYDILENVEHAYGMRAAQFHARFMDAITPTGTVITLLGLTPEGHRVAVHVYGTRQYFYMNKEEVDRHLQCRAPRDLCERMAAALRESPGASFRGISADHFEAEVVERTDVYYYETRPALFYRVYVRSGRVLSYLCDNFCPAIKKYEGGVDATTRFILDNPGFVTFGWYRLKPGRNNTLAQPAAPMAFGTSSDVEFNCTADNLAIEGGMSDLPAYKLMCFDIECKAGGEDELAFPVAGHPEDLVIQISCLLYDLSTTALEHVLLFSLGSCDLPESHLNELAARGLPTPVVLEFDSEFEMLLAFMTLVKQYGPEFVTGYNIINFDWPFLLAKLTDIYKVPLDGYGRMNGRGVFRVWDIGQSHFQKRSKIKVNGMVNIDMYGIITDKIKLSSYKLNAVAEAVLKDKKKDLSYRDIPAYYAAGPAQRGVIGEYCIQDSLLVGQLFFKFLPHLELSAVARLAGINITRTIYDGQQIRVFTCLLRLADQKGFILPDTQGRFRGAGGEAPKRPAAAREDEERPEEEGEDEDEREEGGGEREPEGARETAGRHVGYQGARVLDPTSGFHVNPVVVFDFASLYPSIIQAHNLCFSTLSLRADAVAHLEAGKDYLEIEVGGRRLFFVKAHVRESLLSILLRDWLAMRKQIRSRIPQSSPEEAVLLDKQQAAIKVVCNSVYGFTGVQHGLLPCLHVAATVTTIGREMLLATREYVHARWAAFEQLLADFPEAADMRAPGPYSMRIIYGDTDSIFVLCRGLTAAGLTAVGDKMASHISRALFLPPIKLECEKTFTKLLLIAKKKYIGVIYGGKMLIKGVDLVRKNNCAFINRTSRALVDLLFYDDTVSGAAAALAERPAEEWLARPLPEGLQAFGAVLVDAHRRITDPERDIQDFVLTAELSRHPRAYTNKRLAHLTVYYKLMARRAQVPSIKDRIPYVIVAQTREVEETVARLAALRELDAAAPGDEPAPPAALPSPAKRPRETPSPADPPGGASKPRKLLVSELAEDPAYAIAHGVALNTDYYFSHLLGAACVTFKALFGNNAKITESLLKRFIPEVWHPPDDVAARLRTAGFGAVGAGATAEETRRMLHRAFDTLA

Compound | ΔTm (D4 [1]; 25 µM) | ΔTm (D4 [1]; 50 µM) | thermal shift (in words) (D4 [1]) | SPR binding to D4 (in words) (D4 [2]) | effect on D4 protein levels after Pronase proteolysis (in words) (D4 [3]) | IC50 [6] [µM] | EC50 (mD4-VV surrogate virus) [µM] | EC50 (VV) [µM] | solubility sufficient to detect % of the applied amount [9] | further results
Nc1ccn(C[C@@H](CO)OCP(=O)(O)O)c(=O)n1 [CDV, 1-((3-hydroxy-2-phosphonylmethoxy)propyl)cytosine] | −0.37 ± 0.14; ° C. | −0.27 ± 0.37 °C | no thermal shifts | near-baseline signals | did not affect the protein levels of D4 |  |  |  |  | 
CCC(C(=O)Nc1sc(C(N)=O)c(C)c1C(=O)OC)c1ccccc1 (centres unmarked) [Compound 1, methyl 5-carbamoyl-4-methyl-2-(2-phenylbutanamido)thiophene-3-carboxylate] | −0.86 | −1.55 |  |  | increase in D4 protein levels | 16.3 | 22.9 | 15.1 |  | effect on ERβ-N protein levels after proteolysis (in words) [4]: inability; inhibition of VACV DNA synthesis compared with mD4 reaction (in words) [5]: Nearly identical inhibition; antiviral activity against HSV-1 infection (in words) (HSV-1): lack of antiviral activity; inhibition of DNA synthesis using HSV-1 proteins (in words) [7]: no inhibition; DNA binding heat traces (in words) [8]: no appreciable total heats; effect on MBP protein levels after proteolysis (in words) (MBP): inability
CCC(C(=O)Nc1sc(C(N)=O)c(C)c1C(=O)OC)c1ccc(F)cc1 (centres unmarked) [Compound 99, 5-Carbamoyl-2-[2-(4-fluoro-phenyl)-butyrylamino]-4-methyl-thiophene-3-carboxylic acid methyl ester] |  |  |  |  |  | 8.9 | 8.8 | 9 | up to 143% | irritancy score [10]: non-irritant
O=C(NCc1ccc(Cl)cc1)c1ccsc1NC(=O)N1CCN(c2ccccn2)CC1 [Compound 111, 4-Pyridin-2-yl-piperazine-1-carboxylic acid [3-(4-chloro-benzyl carbamoyl)-thiophen-2-yl]-amide] |  |  |  |  |  | 63.3 | 7 |  | ≤ 90% | 
CCC(C(=O)Nc1sc(C(=O)O)c(C)c1C(=O)OC)c1ccc(C(F)(F)F)cc1 (centres unmarked) [Compound 199, 4-(methoxycarbonyl)-5-(2-(4-(trifluoromethyl)phenyl)butanamido)-3-methylthiophene-2-carboxylic acid] |  |  |  |  |  |  | 17.9 |  |  | CC50 (in vitro): > 100 µM
O=C(NN1C(=O)[C@@H]2[C@@H]3C=C[C@@H]([C@H]4C[C@@H]34)[C@@H]2C1=O)c1ccc(C(F)(F)F)cc1 [ST-246] | −0.37 ± 0.08; ° C. | −0.26 ± 0.10 °C | no thermal shifts | near-baseline signals | did not affect the protein levels of D4 |  |  |  |  | 
